# Assay results as given in publication PMC8180025, “Antibacterial, antifungal and antioxidant activities of whole plant chemical constituents of Rumex abyssinicus” (BMC Complementary Medicine and Therapies, 2021).
# Where “and” joins values, the source holds several entries; their conditions need not be identical. Equal entries are not always repeated. Marks after values point to notes of the source that are not given here.
# How the values were obtained:
# P. aeruginosa [1] = test: Checkerboard combination with antibiotic (FIC); type: cell-based, Pseudomonas aeruginosa; conditions: combined with ciprofloxacin
# S. flexneri [2] = test: Checkerboard combination with antibiotic (FIC); type: cell-based, Shigella flexneri; conditions: combined with ciprofloxacin
# Protocol: (§1) The inoculum was initially prepared as described above. The test microorganisms were inoculated into a 96-well microtitre plates and a serial dilution of two antimicrobial agents: antibiotic and MeOH extract, compound 2 or 4. Each well consisted of unique combination of test sample and antibiotic concentrations. The plates were then incubated for 24 h at 37 °C. The analyses were performed in triplicates. And the antimicrobial agents interactions were evaluated by calculating the fractional inhibitory concentration (FIC) indices. The FIC is defined as follows: MIC of antibiotic tested in combination/MIC of antibiotic tested alone + MIC of extract/compound tested in combination/MIC of extract/compound tested alone. The FIC index is interpreted as FIC ≤ 0.5: synergistic effect, 0.5 < FIC ≤1: additive effect, 1 < FIC ≤2: indifferent effect, and FIC > 2.0: antagonistic effect.
# S. aureus = test: Checkerboard combination with antibiotic (FIC); type: cell-based, Staphylococcus aureus; conditions: combined with ciprofloxacin
# MSSA01 = test: Checkerboard combination with antibiotic (FIC); type: cell-based, Staphylococcus aureus; conditions: combined with ciprofloxacin
# MRSA03 = test: Checkerboard combination with antibiotic (FIC); type: cell-based, Staphylococcus aureus; conditions: combined with ciprofloxacin
# C. albicans = test: Checkerboard combination with antibiotic (FIC); type: cell-based, Candida albicans; conditions: combined with fluconazole
# C. neoformans = test: Checkerboard combination with antibiotic (FIC); type: cell-based, Cryptococcus neoformans; conditions: combined with fluconazole
# [3] = DPPH free radical scavenging assay; type: biochemical; conditions: mean ± SD, triplicate
# Protocol: The free radical scavenging activity of extracts and compounds was evaluated according to described methods. The EC50 (μg/ml), which is the amount of sample necessary to inhibit by 50% the absorbance of free radical DPPH was calculated. Vitamin C was used as a standard control. All the analyses were carried out in triplicate.
# [4] = Gallic acid equivalent antioxidant capacity (GEAC) assay; type: biochemical; conditions: laccase/ABTS, 420 nm after 240 s; mean ± SD
# Protocol: The GEAC test was done as previously described with slight modifications. In a quartz cuvette, to 950 μL acetate buffer (pH =5.0, 100 mM), the following were added: 20 μL laccase (1 mM stock solution), 20 μL test sample, 10 μL ABTS (2,2′-azinobis(3-ethylbenzothiazoline-6-sulfonic acid) (74 mM stock solution). The purification of laccase from Sclerotinia sclerotiorum was done according to the protocol described. The sample concentrations in the assay mixture were 800, 400, 200, 100, 10 μg/mL for the extracts and 200, 100, 50, 25, 12.5, 6.25, 3.125, 1.56 μg/mL for the isolated compounds. The content of the generated ABTS^●+ radical was measured at 420 nm after 240 s reaction time and was converted to gallic acid equivalents by the use of a calibration curve (Pearson’s correlation coefficient: r = 0.997) constructed with 0, 4, 10, 14, 28, 56, 84 μM gallic acid standards rather than Trolox. Experiments were done in triplicate.
# P. aeruginosa [5] = test: Cell membrane leakage assay (260 and 280 nm absorbing material); type: cell-based, Pseudomonas aeruginosa; conditions: at concentrations equal to or two times MIC, concentration dependent
# Protocol: (§2) The alteration of cell membrane of P. aeruginosa and S. flexneri was evaluated by measuring the optical densities at 260 nm and 280 nm of the bacterial suspensions in the presence and absence of MeOH extract and compound 2 using the method described by Karsha and Lakshmi.
# S. flexneri [6] = test: as above; type: cell-based, Shigella flexneri; conditions: at concentrations equal to or two times MIC, concentration dependent
# Protocol: as §2
# S. flexneri [7] = test: Sugar leakage through membrane of bacteria; type: cell-based, Shigella flexneri; conditions: ½ MIC, 2 MIC, 12 h
# [8] = system: respiratory chain dehydrogenase in P. aeruginosa; test: Respiratory chain dehydrogenase enzyme activity (TTC reduction); type: cell-based, Pseudomonas aeruginosa; conditions: increasing concentration, 0, 30, 60 min
# [9] = system: respiratory chain dehydrogenase in S. flexneri; type: cell-based, Shigella flexneri; conditions: 0, 30, 60 min
# [10] = system: bacterial and yeast species; test: Checkerboard combination with antibiotics, whole panel; type: cell-based; conditions: overall statement over the microorganisms tested
# Protocol: as §1
# [11] = system: Pseudomonas aeruginosa ATCC27853; test: Broth microdilution MIC/MMC
# Shigella flexneri SDINT = test: Broth microdilution MIC/MMC
# [12] = system: Staphylococcus aureus ATCC25923; test: Broth microdilution MIC/MMC
# [13] = system: methicillin sensitive S. aureus MSSA01; test: Broth microdilution MIC/MMC
# [14] = system: methicillin resistant S. aureus MRSA03; test: Broth microdilution MIC/MMC
# [15] = system: Candida albicans ATCC10231; test: Broth microdilution MIC/MMC
# [16] = system: Cryptococcus neoformans H99; test: Broth microdilution MIC/MMC
# P. aeruginosa [17] = test: Sugar leakage through membrane of bacteria; conditions: ½ MIC, 2 MIC, 12 h
# Protocol: After incubation, the mixture was centrifuged at 12,000 rpm and the supernatant was collected. The concentration of reducing sugar was determined spectrophotometrically at 550 nm using 3–5 dinitro-salicylic acid (DNS) [29].
# red blood cells (RBCs) = type: cell-based, Wistar rats (Rattus novergicus)
# Protocol: Three male Wistar rats (Rattus novergicus), aged 10–12 weeks and weighing 230 to 240 g were used. These animals were bred in the animal house of the University of Dschang, Cameroon. Efforts were also made to minimize animal suffering and to reduce the number of animal used in the experiment. All the rats were anaesthesized via intraperitoneal injection of the mixture of ketamine (50 mg/ kg body weight, BW) and xylazine (10 mg /kg BW), in a dose that is commonly used for operation purposes. Subsequently the unconscious animals were decapitated swiftly and the whole blood (10 mL) was collected by cardiac puncture into a conical tube containing Ethylene Diamine Tetra Acetic Acid (EDTA) as an anticoagulant. Erythrocytes were obtained by centrifugation at room temperature for 10 min at 1000 x g and were washed three times in PBS buffer. The cytotoxicity was evaluated as previously described.
# The cytotoxic activity of extracts and isolated compounds from R. abyssinicus was studied by assessing the haemolytic activity against red blood cells (RBCs) using Triton X-100 as a positive control.
compound,measurement,setting,value
"COc1cc(O)c2c(c1)C(=O)c1cc(C)cc(O)c1C2=O [Compound 2, Physcion]",Interpretation (of FIC index),P. aeruginosa [1],Synergistic (FIC ≤ 0.5: synergistic effect)
same,FICEx / FIC2 / FIC5 (MIC of extract/compound tested in combination/MIC of extract/compound tested alone),P. aeruginosa [1]; checkerboard,0.125
same,FICA (MIC of antibiotic tested in combination/MIC of antibiotic tested alone),"P. aeruginosa [1]; checkerboard, 24 h at 37 °C",0.125
same,Interpretation (of FIC index),S. flexneri [2],Synergistic (FIC ≤ 0.5: synergistic effect)
same,FIC (fractional inhibitory concentration index),S. flexneri [2]; checkerboard,0.281
same,FICEx / FIC2 / FIC5 (MIC of extract/compound tested in combination/MIC of extract/compound tested alone),S. flexneri [2]; checkerboard,0.25
same,FICA (MIC of antibiotic tested in combination/MIC of antibiotic tested alone),"S. flexneri [2]; checkerboard, 24 h at 37 °C",0.031
same,Interpretation (of FIC index),S. aureus,Synergistic (FIC ≤ 0.5: synergistic effect)
same,FIC (fractional inhibitory concentration index),S. aureus; checkerboard,0.375
same,FICEx / FIC2 / FIC5 (MIC of extract/compound tested in combination/MIC of extract/compound tested alone),S. aureus; checkerboard,0.125
same,FICA (MIC of antibiotic tested in combination/MIC of antibiotic tested alone),"S. aureus; checkerboard, 24 h at 37 °C",0.25
same,FIC (fractional inhibitory concentration index),MSSA01,0.5625
same,FICEx / FIC2 / FIC5 (MIC of extract/compound tested in combination/MIC of extract/compound tested alone),MSSA01,0.5
same,FICA (MIC of antibiotic tested in combination/MIC of antibiotic tested alone),MSSA01; 24 h at 37 °C,0.0625
same,FIC (fractional inhibitory concentration index),MRSA03,0.5625
same,FICEx / FIC2 / FIC5 (MIC of extract/compound tested in combination/MIC of extract/compound tested alone),MRSA03,0.5
same,FICA (MIC of antibiotic tested in combination/MIC of antibiotic tested alone),MRSA03; 24 h at 37 °C,0.0625
same,Interpretation (of FIC index),C. albicans,Synergistic (FIC ≤ 0.5: synergistic effect)
same,FIC (fractional inhibitory concentration index),C. albicans; checkerboard,0.125
same,FICEx / FIC2 / FIC5 (MIC of extract/compound tested in combination/MIC of extract/compound tested alone),C. albicans; checkerboard,0.0625
same,FICA (MIC of antibiotic tested in combination/MIC of antibiotic tested alone),"C. albicans; checkerboard, 24 h at 37 °C",0.0625
same,Interpretation (of FIC index),C. neoformans,Synergistic (FIC ≤ 0.5: synergistic effect)
same,FIC (fractional inhibitory concentration index),C. neoformans; checkerboard,0.125
same,FICEx / FIC2 / FIC5 (MIC of extract/compound tested in combination/MIC of extract/compound tested alone),C. neoformans; checkerboard,0.0625
same,FICA (MIC of antibiotic tested in combination/MIC of antibiotic tested alone),"C. neoformans; checkerboard, 24 h at 37 °C",0.0625
same,DPPH free radical scavenging activity (EC50),[3],3.08 ± 0.44^e μg/mL
same,Gallic acid equivalent antioxidant capacity (GEAC),[4],104.87 ± 1.43 μg/mL and 106.03 ± 0.87^d μg/mL
same,leakage of biological material absorbing at 260 and 280 nm,P. aeruginosa [5],induced leakage
same,leakage of biological material absorbing at 260 and 280 nm,S. flexneri [6],induced leakage
same,appearance of reducing sugar in the bacterial culture suspension,S. flexneri [7],increased
same,respiratory chain dehydrogenase activity (TPF formed),[8],significant decrease in the TPF formed
same,respiratory chain dehydrogenase activity (TPF formed),[9],significant decrease in the TPF formed
same,effect of the association with ciprofloxacin (bacteria) / fluconazole (yeasts),[10],synergistic
same,MMC/MIC,[11]; P. aeruginosa,2
same,MMC,"[11]; P. aeruginosa, sub-culturing after broth microdilution",16 µg/mL
same,MIC,"[11]; Pseudomonas aeruginosa, ATCC27853",8 µg/mL
same,MMC/MIC,Shigella flexneri SDINT; S. flexneri,2
same,MMC,"Shigella flexneri SDINT; S. flexneri, sub-culturing after broth microdilution",16 µg/mL
same,MIC,Shigella flexneri SDINT; Shigella flexneri,8 µg/mL
same,MMC/MIC,[12]; S. aureus,1
same,MMC,"[12]; S. aureus, sub-culturing after broth microdilution",8 µg/mL
same,MIC,"[12]; Staphylococcus aureus, ATCC25923",8 µg/mL
same,MMC/MIC,[13]; MSSA01,2
same,MMC,"[13]; MSSA01, sub-culturing after broth microdilution",32 µg/mL
same,MIC,[13]; Staphylococcus aureus,16 µg/mL
same,MMC/MIC,[14]; MRSA03,2
same,MMC,"[14]; MRSA03, sub-culturing after broth microdilution",32 µg/mL
same,MIC,[14]; Staphylococcus aureus,16 µg/mL
same,MMC/MIC,[15]; C. albicans,1
same,MMC,"[15]; C. albicans, sub-culturing after broth microdilution",8 µg/mL
same,MIC,"[15]; Candida albicans, ATCC10231",8 µg/mL
same,MMC/MIC,[16]; C. neoformans,1
same,MMC,"[16]; C. neoformans, sub-culturing after broth microdilution",8 µg/mL
same,MIC,"[16]; Cryptococcus neoformans, H99",8 µg/mL
same,appearance of reducing sugar in the bacterial culture suspension,P. aeruginosa [17],increased
Triton X-100,lysis of RBCs,red blood cells (RBCs),100%
